The values that follow are results of earlier work, collected in patent US20070053892A1, “Methods and kits for co-administration of nutritional supplements” (Everett Laboratories, Inc., priority 2005, published 2007).

The conditions of data set [1]: patients with hypertension.
The conditions of data set [2]: patients with congestive heart failure.
For data set [3] the following is noted: patients with ischemic heart disease.
The conditions of data set [4]: patients with cardiomyopathy.

SMILES strings stand for the structures.

In the case of `COC1=C(OC)C(=O)C(C/C=C(\C)CC/C=C(\C)CC/C=C(\C)CC/C=C(\C)CC/C=C(\C)CC/C=C(\C)CC/C=C(\C)CC/C=C(\C)CC/C=C(\C)CCC=C(C)C)=C(C)C1=O` [CoQ10, coenzyme Q10], the blood pressure entry in data set [1] is given as “significantly reduce blood pressure”. In addition, the “myocardial metabolic function, blood pressure, myocardial thickness” value in data set [2] is “improve myocardial metabolic function, reduce blood pressure, and reduce myocardial thickness”. Further, in data set [3], the “magnitude and rate of clinical improvement” value was “enhances both the magnitude and rate of clinical improvement”. In data set [4], the “cardiac function including ejection fraction and cardiac output” value was “significant improvement in cardiac function”.
